In US5591762A, “Benzimidazoles useful as angiotensin-11 antagonists” (Dr. Karl Thomae GmbH, priority 1991, dated 1997):

Key:
[1] = molecular target: T1, angiotensin II-receptor (Rattus norvegicus, UniProt P25095); assay: Angiotensin II-receptor bonding (binding) with [125I]-angiotensin II on rat lung homogenate; details: 50 pM [125I]-angiotensin II, 60 min at 37° C., pH 7.40
T1 construct: The tissue (rats lung ) is homogenised in Tris-buffer; from tissue; host or cells: rat lung homogenate (washed 20,000×g pellet)
T1 sequence (P25095 1-359): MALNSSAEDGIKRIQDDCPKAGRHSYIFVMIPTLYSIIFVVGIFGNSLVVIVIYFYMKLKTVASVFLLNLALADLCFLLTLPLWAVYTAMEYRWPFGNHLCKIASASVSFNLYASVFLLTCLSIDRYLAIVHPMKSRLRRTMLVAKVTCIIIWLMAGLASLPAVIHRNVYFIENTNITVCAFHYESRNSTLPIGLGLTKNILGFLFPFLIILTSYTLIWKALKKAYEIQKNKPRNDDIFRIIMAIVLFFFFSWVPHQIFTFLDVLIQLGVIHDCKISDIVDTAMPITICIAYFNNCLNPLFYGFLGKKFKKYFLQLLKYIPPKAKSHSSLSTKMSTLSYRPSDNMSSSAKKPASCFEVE
Method: DESCRIPTION OF METHOD: ANGIOTENSIN II-RECEPTOR BONDING
The tissue (rats lung ) is homogenised in Tris-buffer (50 mMol Tris, 150 mMol NaCl, 5 mMol EDTA, pH 7.40) and centrifuged twice for 20 minutes at 20,000×g. The finished pellets are resuspended in incubating buffer (50 mMol Tris, 5 mMol MgCl2, 0.2% BSA, pH 7.40) 1:75, based on the moist weight of the tissue. Each 0.1 ml of homogenate is incubated for 60 minutes at 37° C. with 50 pM [^125 I]-antiotensin II (NEN, Dreieich, FRG) with increasing concentrations of the test substance in a total volume of 0.25 ml. Incubation is ended by rapid filtration through glass fibre filter mats. The filters are each washed with 4 ml of ice cold buffer (25 mMol Tris, 2.5 mMol MgCl2, 0.1% BSA, pH 7.40). The bound radioactivity is measured using a gamma-counter. The corresponding IC50 value is obtained from the dose-activity curve.

[2] = system: rat model of renovascular hypertension (2-kidney 1-clip rat); assay: Renovascular hypertension: blood pressure lowering in 2-kidney 1-clip rats (telemetry, oral); type: in vivo; details: two times daily
Text: DESCRIPTION OF METHOD: RENOVASCULAR HYPERTENSION
Blood pressure lowering effects of angiotensin-II antagonists were investigated in a rat model of renovascular hypertension. This model, the 2-kidney 1-clip rat, is characterized by an elevated renin activity (see J. Exper. Med. 59, 347-378 (1934), J. Applied Physiol. 31(1), 142-144 (1971) and Gross D. R. in "Animal Models in Cardiovascular Research: Animal Models of hypertension" Martinus Nijhoff Publishers (1985)). The compounds are given two times daily by oral administration to conscious freely moving rats which have been implanted with a chronic-use pressure transmitter to monitor blood pressure and heart rate continuously (PhysioTel® telemetry device).
Male rats (140-150 g) are anaesthetized with pentobarbitonesodium (50 mg/kg i.p.). The abdominal cavity is opened by a midline incision. A solid silver clip with an internal diameter of 0.20 mm is applied to the left renal artery as close as possible to the aorta. The contralateral kidney is not disturbed. The catheter of a pressure transmitter (TA11PA-C40) is inserted in the abdominal aorta and the transmitter fixed to abdominal musculature. The abdomen is closed with sutures. The animals are allowed to recover for several weeks and housed individually in cages.
After the implantation of the chronic-use device, blood pressure and heart rate are transmitted by telemetry and the signals are received by a RA 1010 General Purpose Receiver (Data Science Int.). Data are acquired with the Dataquest® IV 1.11 System on a Hewlett Packard Vectra ES/12 386 computer.
Compounds are dissolved in 1M HCl or 1M NaOH. To stabilize the solution β-cyclodextrin (1.8 g/v%) is added. The solutions (0.3 and 1 mg/kg/2 ml) are orally given by gavage at 10.00 a.m. and 4.00 p.m..

[3] = system: conscious renally hypertensive rats; assay: Hypotensive effect in conscious renally hypertensive rats after oral administration; type: in vivo, rat; details: 10 mg/kg
Method: In addition, compounds D, E, F, G, H, M and O were tested on conscious renally hypertensive rats for their effect after oral administration using methods known from the literature.

| IC50 [1] [nM] | Structure (SMILES) | hypotensive effect [3] | further results |
| --- | --- | --- | --- |
| 3.4 | CCCc1nc2c(C)cc(-c3cn(CC(N)=O)cn3)cc2n1Cc1ccc(-c2ccccc2C(=O)O)cc1 [AA] | – | – |
| 1.3 | CCCc1nc2c(C)cc(-c3cn(CCCN(C)C)cn3)cc2n1Cc1ccc(-c2ccccc2C(=O)O)cc1 [BB] | – | – |
| – | CCCc1nc2c(C)cc(-c3nc4ccccc4n3C)cc2n1Cc1ccc(-c2ccccc2C(=O)O)cc1 [D] | exhibited a hypotensive effect | Blood pressure lowering activity ([2]; 0.3 mg/kg): -37 mmHg; Blood pressure lowering activity ([2]; 1.0 mg/kg): -68 mmHg |
| – | CCCc1nc2c(C)cc(-c3nc4ccccc4n3C)cc2n1Cc1ccc(-c2ccccc2-c2nn[nH]n2)cc1 [E] | exhibited a hypotensive effect | Blood pressure lowering activity ([2]; 0.3 mg/kg): -55 mmHg; Blood pressure lowering activity ([2]; 1.0 mg/kg): -78 mmHg |
| – | CCCc1nc2c(C)cc(N3Cc4ccccc4C3=O)cc2n1Cc1ccc(-c2ccccc2-c2nn[nH]n2)cc1 [F] | exhibited a hypotensive effect | – |
| – | CCCc1nc2c(C)cc(N3CCCCS3(=O)=O)cc2n1Cc1ccc(-c2ccccc2-c2nn[nH]n2)cc1 [G] | exhibited a hypotensive effect | – |
| – | CCCCc1nc2c(C)cc(N3C(=O)C(C)=C(C)C3=O)cc2n1Cc1ccc(-c2ccccc2C(=O)O)cc1 [H] | exhibited a hypotensive effect | – |
| – | Cc1cc(-c2nc3ccccc3n2C)cc2c1nc(C1CC1)n2Cc1ccc(-c2ccccc2C(=O)O)cc1 [M] | exhibited a hypotensive effect | – |
| – | CCCc1nc2c(C)cc(-c3cn4cccnc4n3)cc2n1Cc1ccc(-c2ccccc2-c2nn[nH]n2)cc1 [O] | exhibited a hypotensive effect | – |
| – | CCCCc1nc2c(C)cc(-c3nc4ccccc4n3C)cc2n1Cc1ccc(-c2ccccc2-c2nnn[nH]2)cc1 [T] | – | Blood pressure lowering activity ([2]; 0.3 mg/kg): -24 mmHg |
| – | CCCc1nc2c(C)cc(-c3cn4ccccc4n3)cc2n1Cc1ccc(-c2ccccc2-c2nnn[nH]2)cc1 [U] | – | Blood pressure lowering activity ([2]; 1.0 mg/kg): -43 mmHg |
| 1.2 | CCCc1nc2c(C)cc(-c3cn(C)cn3)cc2n1Cc1ccc(-c2ccccc2C(=O)O)cc1 [V] | – | – |
| 1.5 | CCCc1nc2c(C)cc(-c3cn(C(C)C)cn3)cc2n1Cc1ccc(-c2ccccc2-c2nn[nH]n2)cc1 [W] | – | – |
| 40 | CCCc1nc2c(C)cc(-c3coc(C)n3)cc2n1Cc1ccc(-c2ccccc2C(=O)O)cc1 [X] | – | – |
| 10 | CCOc1nc2ccc(-c3cn(C(C)C)cn3)cc2n1Cc1ccc(-c2ccccc2C(=O)O)cc1 [Y] | – | – |
| 15 | CCCc1nc2c(C)cc(-c3cn(C4CCCCCC4)cn3)cc2n1Cc1ccc(-c2ccccc2C(=O)O)cc1 [Z] | – | – |
